Bounds are passed on as bounds.

This assay has as its target T1, human 5-HT2C receptor (Homo sapiens, UniProt P28335).
T1 construct: host or cells: CHO cells, stably expressing
T1 sequence (P28335 33-458): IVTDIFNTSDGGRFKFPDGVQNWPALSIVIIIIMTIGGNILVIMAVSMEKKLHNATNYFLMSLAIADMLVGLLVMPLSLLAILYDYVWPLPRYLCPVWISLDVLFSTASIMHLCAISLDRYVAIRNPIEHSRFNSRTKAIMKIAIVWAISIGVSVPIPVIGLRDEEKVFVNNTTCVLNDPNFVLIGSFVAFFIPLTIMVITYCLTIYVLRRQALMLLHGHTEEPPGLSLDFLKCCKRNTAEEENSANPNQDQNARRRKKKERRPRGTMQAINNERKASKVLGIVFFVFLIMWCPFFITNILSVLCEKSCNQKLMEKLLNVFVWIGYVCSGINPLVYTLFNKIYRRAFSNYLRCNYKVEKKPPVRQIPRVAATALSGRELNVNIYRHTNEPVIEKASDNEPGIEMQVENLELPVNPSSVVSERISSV
Kind of assay: Functional calcium mobilization (FLIPR) assay, 5-HT2C. In kind it is cell-based. The settings on record: CHO cells stably expressing human 5-HT2C receptor; agonist-stimulated Ca2+ flux. The method, then: (a) Cell Culture for the Human 5-HT2A, Human 5-HT2B, and Human 5-HT2C Receptors:
CHO cells stably expressing the human 5-HT2A, human 5-HT2B, and human 5-HT2C receptors were purchased from PerkinElmer (Waltham, Mass.). Cells were grown in advance DMEM/F12, 1% dialyzed fetal bovine serum, 2 mM L-glutamine, 100 units/mL penicillin, 1 mg/mL streptomycin, and 0.4 mg/ml Geneticin at 37° C. in 5% CO2 atmosphere.
(b) Calcium Mobilization Assays:
Cells were seeded in black clear-bottom 384-well plates at a density of 10,000 cells/well and incubated overnight at 37° C. in 5% CO2/95% atmosphere. After removing medium, cells were loaded with modified HBSS buffer (137.9 mM NaCl, 5.3 mM KCl, 5.5 mM glucose, 20 mM Hepes, 0.49 mM MgCl2, 1.26 mM CaCl2, 0.41 mM MgSO4, 0.33 mM Na2HPO4, and 0.44 mM KH2PO4) containing the FLIPR Calcium 4 dye (Molecular Devices, CA) and probenecid ([…]) and incubated at 37° C. for 60 min, according to the manufacturer's instructions. Compounds were diluted in HBSS buffer containing 6% DMSO as six folds. Final DMSO concentration in the assay was 1%. The dose-response of agonist-stimulated Ca^2+ flux was measured on a Fluorometric Imaging Plate Reader (FLIPR Tetra) (Molecular Devices, CA).
Data were analyzed by nonlinear least squares curve fitting using GraphPad Prism 5.0 software (GraphPad Software, CA). Agonist stimulation in FLIPR assay was fitted to sigmoidal dose response curves using the equation Y=Bottom+(Top-Bottom)/(1+10^((Log EC50−X)*Hill Slope)), where X is the logarithm of concentration of compounds. Y is the fluorescent response, EC50 is the concentration of compound producing 50% of maximum response. Maximum responses (Emax) of compounds were calculated based on % of stimulation relative to the response of α-methyl-5HT (100%). EC50's are representative of two or three separate experiments performed in triplicates.
For orientation: A change in cytosolic calcium serves as a functional read-out for many receptors and channels.
Turning to `Clc1ccc(OC2CCCCC2)c2cc3c(nc12)CCNCC3`, the concentration for a half-maximal effect (EC50) (as a rule, the midpoint of the concentration-response curve) was less than 50 nM. Next, `Cc1c2c(nc3c(C4CC4)c(F)cc(F)c13)CCNCC2`: less than 5 nM.

Consider `Cc1c2c(nc3c(OC4CCCCCC4)ccc(F)c13)CCNCC2`, for which the EC50 was less than 10 nM. The value for `Cc1c2c(nc3c(OC4CCCCC4)ccc(F)c13)CCNCC2` was less than 10 nM. Next, `Fc1cc(F)c2cc3c(nc2c1C1CC1)CCNCC3`: less than 5 nM. Next, `Fc1cc(C2CC2)c2nc3c(cc2c1Cl)CCNCC3`: less than 5 nM. For `Clc1ccc(C2CC2)c2nc3c(cc12)CCNCC3`, the EC50 is less than 1 nM.

With `Fc1cccc(Oc2ccc(Cl)c3nc4c(cc23)CCNCC4)c1`, the EC50 is less than 20 nM.

As for `Cc1c2c(nc3c(Cl)ccc(OC4CCCCC4)c13)CCNCC2`, the EC50 was less than 5 nM. Turning to `Cc1c2c(nc3c(C4CC4)ccc(Cl)c13)CCNCC2`, the half-maximal effective concentration (EC50) was less than 15 nM.

Turning to `Fc1cc(C2CC2)c2nc3c(cc2c1F)CCNCC3`, the EC50 was less than 5 nM.

Source of the values: patent US10131660B2, “Tetrahydro-azepinoquinolines as agonists of the 5-HT2C receptor” (Sunnylife Pharma, Inc., priority 2014, dated 2018).
